Experimental data as given in patent US12571019B2, “Nisin-permeabilized microbial cell catalysts” (DANMARKS TEKNISKE UNIVERSITET, priority 2020, dated 2026).

Legend:
S. thermophilus CS1980 = experiment: Lactose hydrolysis in POM buffer by permeabilized S. thermophilus CS1980 whole-cell catalyst; type: cell-based, Streptococcus thermophilus; details: for stability of the whole-cell catalyst: permeabilized 10 minutes at 28° C. (45% (v/v) ethanol or 2.5 μg/ml nisin), hydrolysis 50° C.
Procedure: S. thermophilus CS1980 was grown in 500-ml Erlenmeyer flasks containing 200 ml of medium at 37° C. for 16 h without agitation. As inoculum, 2 ml of a 24 hour, outgrown culture was used. Cells were collected by centrifugation at 10,000 g for 10 min at 4° C., washed once with sterile POM buffer (50 mM K2HPO4/KH2PO4, 1 mM MgCl2, pH 7.4) and finally re-suspended in POM buffer to an optical density (600 nm) of 0.33, corresponding to approximately 100 mg/l dry cell weight. The cell suspension was kept on ice until use. For permeabilization, cell suspensions were dispensed into sterile tubes (1 ml per tube) and centrifuged in a microcentrifuge at top speed for 5 min at 4° C.
Samples were withdrawn at different time points, and conversion of lactose (formation of glucose and galactose) was determined by HPLC analysis.
The concentrations of sugars (carbohydrate monomers and dimers) were determined using an Ultimate 3000 high-pressure liquid chromatography system (Dionex, Sunnyvale, CA) equipped with an Aminex HPX-87H column (Bio-Rad, Hercules, CA) and a Shodex RI-101 detector (Showa Denko KK, Tokyo, Japan). The column oven temperature was set to 30° C., and the mobile phase consisted of 5 mM H2SO4 with a flowrate of 0.5 ml/min.
Hydrolysis took place at 50° C.
Hydrolysis of lactose in POM buffer (50 g/l lactose) at 50° C. was carried out at a cell concentration of approximately 100 mg/l.
Hydrolysis of lactose (50 g/1) was carried out in POM buffer at 50° C.

[1] = test system: L. lactis strain MG1363 ΔldhB ΔldhX Δpta ΔadhE ΔbutBA ΔaldB (RD04); experiment: Alpha-acetolactate synthase activity of nisin-permeabilized L. lactis RD04 (pyruvate to alpha-acetolactate, HPLC); type: cell-based, Lactococcus lactis; details: 100 μg/ml nisin, 15 min 37° C.; 200 mM sodium pyruvate
Procedure: A modified L. lactis strain MG1363 lacking alpha-acetolactate decarboxylase activities was used in the present experiment. More specifically, the strain RD04 was L. lactis strain MG1363 ΔldhB ΔldhX Δpta ΔadhE ΔbutBA ΔaldB, while harboring an expression vector for overexpressing native alpha-acetolactate synthase (Als).
Alpha-acetolactate synthase activity was determined by investigating the conversion rate of pyruvate to alpha-acetolactate, using HPLC measurements of alpha-acetolactate formation.

[2] = test system: S. thermophilus strains from starter culture ST057; experiment: Lactose hydrolysis in POM buffer by nisin-permeabilized S. thermophilus strains from starter culture ST057; type: cell-based, Streptococcus thermophilus
Procedure: Streptococcus thermophilus (S. thermophilus) strain CS1980 was isolated from a Danish yoghurt (same as used in example 1). Additional S. thermophilus strains were isolated from starter cultures kindly provided by Sacco Srl. Italy (ST057, ST022).
Hydrolysis was performed at 50° C.

S. thermophilus ST057-1 = experiment: Hydrolysis of lactose in milk by nisin-permeabilized S. thermophilus ST057-1; type: cell-based, Streptococcus thermophilus
Procedure: Nisin-treated S. thermophilus ST057-1 was applied in hydrolysis of lactose in milk, at cell concentration of approximately 100 mg/l or 1 g/l. […] The starting concentration of lactose in the milk used was 52 g/l. Hydrolysis took place at 50° C.
Hydrolysis of lactose in milk (52 g/l lactose) using nisin-treated cells was carried out at a cell concentration of approximately 1 g/l. Hydrolysis took place at 50° C.

S. thermophilus = details: Somkuti et al., 1998; cited from earlier work

nisin A
lactose hydrolyzed (S. thermophilus CS1980; 2.5 μg/ml nisin 10 min, 100 mg/l cells, 50 g/l lactose in POM buffer, hydrolysis at 50° C., within 24 hours): 95% | lactose conversion compared to control and ethanol-permeabilized cells (S. thermophilus CS1980; 2.5 μg/ml nisin, 10 minutes 28° C., 50 g/l lactose POM buffer, 50° C., 100 mg/l cells): perform better than the control as well as the ethanol-permeabilized cells | effect of prolonged nisin treatment (S. thermophilus CS1980; 30 minutes vs 10 minutes permeabilization): does not give better results | efficiency of permeabilization at different permeabilization temperatures (S. thermophilus CS1980; permeabilization at 28° C. and 37° C., 2.5 μg/ml nisin 10 min): equally efficient | cell stability after permeabilization (S. thermophilus CS1980; permeabilization at 55° C., 2.5 μg/ml nisin): seemed to be compromised | efficiency of permeabilization at different permeabilization temperatures (S. thermophilus CS1980; permeabilization temperatures 28-50° C., 2.5 μg/ml nisin): equally efficient | stability of the whole-cell catalyst (S. thermophilus CS1980): higher stability | conversion of pyruvate to alpha-acetolactate compared to non-permeabilized cells [1]: performed much better than non-permeabilized cells | time to reach 80% hydrolysis ([2]; POM buffer, 100 mg/l whole-cell catalyst, 50° C.): ≤ 4 h | conversion of the lactose ([2]; two strains from starter culture ST057, 2.5 μg/ml nisin 10 min 28° C., hydrolysis 50° C., in less than half of the time of the other strains): > 90% | time to reach 80% hydrolysis (S. thermophilus ST057-1; milk (52 g/l lactose), 100 mg/l whole-cell catalyst, 50° C.): more than 12 hours | conversion rate on increasing the whole-cell catalyst concentration (S. thermophilus ST057-1; milk, 1 g/l vs 100 mg/l cells, 50° C.): significantly increased | lactose conversion in milk at different permeabilization temperature (S. thermophilus ST057-1; permeabilization 28° C. vs 37° C., 1 g/l cells, hydrolysis 50° C.): performed equally well

CCO [ethanol]
stability of the whole-cell catalyst (S. thermophilus CS1980): compromised the stability of the whole-cell catalyst | permeabilizing agent effect on measurable beta-galactosidase activity (S. thermophilus): efficient as a permeabilizing agent
